The results in this text go back to article PMC10812521, “Boesenbergia rotunda and Its Pinostrobin for Atopic Dermatitis: Dual 5-Lipoxygenase and Cyclooxygenase-2 Inhibitor and Its Mechanistic Study through Steady-State Kinetics and Molecular Modeling” (Antioxidants, 2024).

Entries after “also recorded” stand apart in the source; their conditions may differ. Like-named read-outs stand apart in the source and are kept apart here.

Experiment [1] in a line: DPPH radical scavenging activity. To be noted: pure compounds. As for the experimental part: Each extract/EOs sample (20 µL) at various concentrations ([…]–5 mg/mL) was placed to a 96-well plate, followed by the addition of 120 µM DPPH solution in methanol (180 µL). The plate was subsequently incubated for 30 min in the dark at 37 °C. After that, the absorbance was measured by a microplate reader at 517 nm. Quercetin and solvent were used as a positive control and a control, respectively. The radical scavenging percentage inhibition against DPPH was calculated using Equation (4). (4) % Inhibition=Absorbance control−Absorbance sample/Absorbance control×100
In general terms: DPPH is a stable violet radical that fades when it is reduced.

For the next experiment, the target named is T1, Human recombinant COX-2 (Homo sapiens, UniProt P35354).
T1 construct: purchased Sigma Aldrich C0858; host or cells: insect cells
T1 sequence (P35354 18-604): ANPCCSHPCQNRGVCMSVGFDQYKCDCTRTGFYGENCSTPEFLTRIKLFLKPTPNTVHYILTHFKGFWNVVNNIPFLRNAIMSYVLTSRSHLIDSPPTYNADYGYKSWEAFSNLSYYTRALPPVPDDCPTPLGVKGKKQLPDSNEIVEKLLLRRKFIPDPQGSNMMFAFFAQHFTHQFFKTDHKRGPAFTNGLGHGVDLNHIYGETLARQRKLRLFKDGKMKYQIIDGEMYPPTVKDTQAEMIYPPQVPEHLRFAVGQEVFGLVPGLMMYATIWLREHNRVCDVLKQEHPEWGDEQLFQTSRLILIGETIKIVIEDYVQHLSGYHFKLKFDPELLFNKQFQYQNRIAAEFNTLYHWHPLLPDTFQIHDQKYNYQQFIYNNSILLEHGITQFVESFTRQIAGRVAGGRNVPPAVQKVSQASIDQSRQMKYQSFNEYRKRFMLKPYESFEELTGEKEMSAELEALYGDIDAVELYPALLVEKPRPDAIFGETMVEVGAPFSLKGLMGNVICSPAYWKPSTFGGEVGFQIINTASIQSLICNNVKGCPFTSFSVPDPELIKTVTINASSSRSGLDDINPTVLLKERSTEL
The experiment in a line: Cyclooxygenase-2 inhibitory assay. The format is biochemical. As for the experimental part: This method was adapted and modified from Chew et al. (2018). Human recombinant COX-2 expressed in insect cells (Sigma Aldrich, C0858) was used in this experiment. Initially, a solution of 100 mM Tris HCl buffer, pH 8, was plated out in each well of a 96-well plate. Various concentrations of 40 µL samples (dissolved in polysorbate-20 and DMSO) were further added to the plate, followed by the addition of 40 µL of 40 U COX-2 enzyme (in ice-cool 100 mM Tris HCl buffer, pH 8). The mixture was incubated at 25 °C for 15 min under dark condition. Following the incubation, 10 µL of 20 mM N,N,N′,N′-tetramethyl-p-phenylenediamine (TMPD) and 4 µL of 10 µM of arachidonic acid were added to the mixture. Incubation of the mixture was further performed at a subdued light condition for 15 min. Prostaglandin G2 (PGG2) as an intermediate peroxide product was formed by the reaction and further oxidized the TMPD to a purple-colored TMPD complex. The absorbance was measured at 611 nm. The experiments were performed in duplicate wells. […] The percentage of inhibition was calculated by Equation (7), and the IC50 values were determined. (7) % Inhibition=Absorbance control−Absorbance sample/Absorbance control×100

For experiment [2], the target named is T2, Human recombinant 5-lipoxygenase (Homo sapiens, UniProt P09917).
T2 construct: purchased Cayman Chemical
T2 sequence (P09917 1-674): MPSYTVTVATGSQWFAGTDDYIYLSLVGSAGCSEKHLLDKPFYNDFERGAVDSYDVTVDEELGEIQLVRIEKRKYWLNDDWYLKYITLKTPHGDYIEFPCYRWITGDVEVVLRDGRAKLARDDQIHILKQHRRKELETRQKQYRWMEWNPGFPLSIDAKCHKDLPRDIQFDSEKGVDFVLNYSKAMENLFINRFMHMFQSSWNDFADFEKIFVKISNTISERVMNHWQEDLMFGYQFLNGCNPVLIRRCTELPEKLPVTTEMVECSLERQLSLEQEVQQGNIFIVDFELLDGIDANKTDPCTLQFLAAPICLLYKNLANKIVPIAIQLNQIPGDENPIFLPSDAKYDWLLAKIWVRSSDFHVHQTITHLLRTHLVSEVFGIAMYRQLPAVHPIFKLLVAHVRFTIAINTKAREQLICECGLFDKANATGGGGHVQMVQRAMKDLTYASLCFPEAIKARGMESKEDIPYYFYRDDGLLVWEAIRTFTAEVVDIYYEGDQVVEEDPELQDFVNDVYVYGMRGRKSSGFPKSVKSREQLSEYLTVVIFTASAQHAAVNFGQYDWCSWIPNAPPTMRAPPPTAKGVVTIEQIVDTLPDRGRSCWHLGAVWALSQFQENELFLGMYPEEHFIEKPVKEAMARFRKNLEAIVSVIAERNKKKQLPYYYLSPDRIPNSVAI
The experiment can be described thus: Steady-state inhibition kinetic study of 5-lipoxygenase. The experiment is classed as biochemical. On the procedure:
The same experimental conditions as described previously for determining enzyme inhibition were applied. The reaction was performed at 25 °C and measured kinetically for 30 min (BioTek Synergy H1 microplate reader, Winooski, VT, USA). […] Furthermore, the enzymes’ velocity was plotted versus the substrate concentration, which was fitted to the Henri–Michaelis–Menten equation. In addition, the data were transformed to fit a double reciprocal plot using the Lineweaver–Burk method. […] All measurements were performed in two rounds of triplicate wells.

Take `COc1cc(O)c2c(c1)O[C@H](c1ccccc1)CC2=O` [Pinostrobin, pinostrobin]: the “DPPH Radical; IC50” value in experiment [1] is over 1000 µg/mL. Further, the IC50 on Human recombinant COX-2 (read-out: COX-2 IC50) and on Human recombinant COX-2 (read-out: COX-2 IC50 (µg/mL) (converted)) was 286 µM throughout. Besides, in experiment [2], the Ki turned out to be 2280 nM. Also, the “type of inhibition against 5-LOX” value in experiment [2] (Michaelis-Menten and Lineweaver-Burk plots) is recorded as “mixed-type inhibition; also recorded: mixed-type inhibitor”.

As a reminder, the Ki is a measure of affinity in units of concentration, obtained from inhibition or displacement.
